The values that follow come from PubChem BioAssay (NCI).

Test systems include ACHN renal; EKVX NSCLC; HCT-15 colon; HT29 colon; IGROV1 ovarian; KM12 colon; MOLT-4 leukemia; NCI-H23 lung; NCI-H460 lung; OVCAR-4 ovarian; OVCAR-5 ovarian; SK-MEL-2 melanoma; SK-MEL-28 melanoma; SN12C renal; SW-620 colon; TK-10 renal; UACC-257 melanoma; UACC-62 melanoma; UO-31 renal; HOP-62 NSCLC.
Experiment in all cases: NCI anticancer screen, dose series, 48 h

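Assay format: 96-well plates, 48-hour exposure. TGI is the concentration that stops growth completely.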

Regarding `COC(=O)C(=O)C(C(=O)C1=NS(=O)(=O)c2cc(S(N)(=O)=O)c(Cl)cc2N1)c1nc2ccc(C(=O)c3ccccc3)cc2[nH]c1=O` (configuration not stated), the TGI with ACHN renal, with EKVX NSCLC, with HCT-15 colon, in the experiment with HT29 colon, with IGROV1 ovarian and in the experiment with KM12 colon was more than 100 µM each time. The TGI in the experiment on MOLT-4 leukemia, with NCI-H23 lung, in the experiment with NCI-H460 lung, in the experiment with OVCAR-4 ovarian, in the experiment with OVCAR-5 ovarian and in the experiment on SK-MEL-2 melanoma was more than 100 µM throughout. For the same compound, the TGI with SK-MEL-28 melanoma, in the experiment on SN12C renal, in the experiment with SW-620 colon, in the experiment with TK-10 renal, in the experiment on UACC-257 melanoma and with UACC-62 melanoma was more than 100 µM throughout. This compound returned a TGI in the experiment with UO-31 renal of more than 100 µM.
Take `C[C@H]1C(=O)O[C@@H]1[C@H]1COC(C)(C)O1`: the TGI in the experiment on ACHN renal, with EKVX NSCLC, in the experiment on HCT-15 colon, with HOP-62 NSCLC, with KM12 colon and in the experiment with MOLT-4 leukemia was more than 100 µM in each case. Besides, the TGI in the experiment with NCI-H23 lung, with NCI-H460 lung, in the experiment on OVCAR-4 ovarian, in the experiment on OVCAR-5 ovarian, with SK-MEL-2 melanoma and with SK-MEL-28 melanoma was more than 100 µM each time. The TGI in the experiment on SN12C renal, with SW-620 colon, with TK-10 renal, with UACC-257 melanoma, in the experiment on UACC-62 melanoma and in the experiment with UO-31 renal was more than 100 µM in each case.
For the compound `COc1ccc(CC2c3cc(OC)c(OC)c(OC)c3CC[N+]2(C)C)cc1Oc1ccc(CC2c3cc4c(c(OC)c3CC[N+]2(C)C)OCO4)cc1` (configuration not stated), the TGI in the experiment with ACHN renal, in the experiment with EKVX NSCLC, in the experiment on HCT-15 colon, with HT29 colon, in the experiment with IGROV1 ovarian and in the experiment on KM12 colon was more than 100 µM each time. Besides, the TGI with MOLT-4 leukemia, in the experiment with NCI-H23 lung, in the experiment on NCI-H460 lung, in the experiment with OVCAR-4 ovarian, with OVCAR-5 ovarian and with SK-MEL-2 melanoma was more than 100 µM throughout. For the same compound, the TGI in the experiment on SK-MEL-28 melanoma, in the experiment with SN12C renal, in the experiment with SW-620 colon, with TK-10 renal, with UACC-257 melanoma and with UACC-62 melanoma was more than 100 µM each time. This compound also showed a TGI in the experiment with UO-31 renal of more than 100 µM.
As to `Cc1nc2c(O)cc3c4c(=O)n(C)c(=O)n(C)c4n(Cc4ccccc4)c3c2nc1C`, the TGI in the experiment with ACHN renal was found to be 31.7 µM; in the experiment on EKVX NSCLC it was 50.2 µM; in the experiment on HCT-15 colon, 34.3 µM; in the experiment on HOP-62 NSCLC, 33.6 µM; with HT29 colon, 32.2 µM; with KM12 colon, 54 µM. Also, the TGI in the experiment on MOLT-4 leukemia was 70.1 µM; with NCI-H23 lung, 38 µM; in the experiment on NCI-H460 lung, more than 100 µM; in the experiment with OVCAR-4 ovarian, 23.7 µM; with OVCAR-5 ovarian it was 43.6 µM; in the experiment with SK-MEL-2 melanoma, 31.9 µM. Moreover, the TGI with SK-MEL-28 melanoma was found to be 28 µM; with SN12C renal, 38.1 µM; with SW-620 colon, 44.2 µM; with TK-10 renal, 38.4 µM; in the experiment on UACC-257 melanoma it was 33.1 µM; in the experiment on UACC-62 melanoma, 34 µM. The TGI in the experiment on UO-31 renal came to 31.4 µM.
Regarding `Cc1ccccc1[P+](C)(c1ccccc1C)c1ccccc1C`, the TGI with ACHN renal turned out to be 29.3 µM; with EKVX NSCLC it was 35 µM; in the experiment with HCT-15 colon it was 48.2 µM; with HOP-62 NSCLC, 71.8 µM; in the experiment with HT29 colon, 19.1 µM; in the experiment with IGROV1 ovarian, 33 µM. The TGI with NCI-H23 lung is 27.3 µM; in the experiment with NCI-H460 lung, more than 100 µM; in the experiment with OVCAR-4 ovarian it was 18.1 µM; in the experiment with OVCAR-5 ovarian it was 33.5 µM; with SK-MEL-2 melanoma, 34.7 µM; with SK-MEL-28 melanoma, 35.8 µM. Moreover, the TGI with SN12C renal is 43.9 µM; in the experiment on SW-620 colon, 39.1 µM; in the experiment with TK-10 renal it was 36.8 µM; with UACC-257 melanoma it was 15.8 µM; with UACC-62 melanoma, 25.7 µM; in the experiment with UO-31 renal, 34.8 µM.
Regarding `CCCCC(C(=O)N/N=C/c1ccc([N+](=O)[O-])o1)C(=O)N/N=C/c1ccc([N+](=O)[O-])o1`, the TGI in the experiment on ACHN renal was 3.69 µM; in the experiment on EKVX NSCLC it was 26.6 µM; in the experiment with HCT-15 colon, 6.47 µM; in the experiment with HOP-62 NSCLC, 28.8 µM; in the experiment with HT29 colon it was 5.16 µM; with IGROV1 ovarian it was 4.22 µM. Besides, the TGI with KM12 colon was 15.4 µM; in the experiment on MOLT-4 leukemia, 7.72 µM; with NCI-H23 lung it was 4.65 µM; in the experiment on NCI-H460 lung, 35.6 µM; in the experiment on OVCAR-4 ovarian, 3.4 µM; in the experiment with OVCAR-5 ovarian, 7.23 µM. Further, the TGI is 36.1 µM with SK-MEL-2 melanoma; 14.7 µM in the experiment on SK-MEL-28 melanoma; 12.3 µM in the experiment on SN12C renal; 6.71 µM in the experiment with SW-620 colon; 7.73 µM in the experiment on TK-10 renal; 11.5 µM in the experiment on UACC-62 melanoma. The compound further registered a TGI with UO-31 renal of 4.6 µM.
